Data as given in PubChem BioAssay (NCI).
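Protocol summary: plate cells (96-well), add compound at 5 concentrations, incubate 48 h, interpolate endpoints linearly. GI50 = concentration required for 50% inhibition of growth. TGI denotes the concentration required for complete inhibition of growth.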

Legend:
Assay in all cases: NCI tumour cell line growth inhibition, 48 h
[1] = system: 786-0 renal
[2] = system: A498 renal
[3] = system: A549 NSCLC
[4] = system: ACHN renal
[5] = system: BT-549 breast
[6] = system: CAKI-1 renal
[7] = system: CCRF-CEM leukemia
[8] = system: COLO 205 colon
[9] = system: DU-145 prostate
[10] = system: EKVX NSCLC
[11] = system: HCC-2998 colon
[12] = system: HCT-116 colon
[13] = system: HCT-15 colon
[14] = system: HL-60(TB) leukemia
[15] = system: HOP-62 NSCLC
[16] = system: HOP-92 NSCLC
[17] = system: HS 578T breast
[18] = system: HT29 colon
[19] = system: IGROV1 ovarian
[20] = system: K-562 leukemia
[21] = system: KM12 colon
[22] = system: LOX IMVI melanoma
[23] = system: M14 melanoma
[24] = system: MALME-3M melanoma
[25] = system: MCF7 breast
[26] = system: MDA-MB-231 breast
[27] = system: MDA-MB-435
[28] = system: MOLT-4 leukemia
[29] = system: NCI-H226 lung

## Cc1cc2c(-c3ccc(NC(=O)[C@H](N)CC(C)(C)C)cc3C)ccnc2[nH]1
[1]
  GI50: 1.81 µM
  TGI: 3.4 µM
[2]
  GI50: 2.2 µM
  TGI: 12.8 µM
[3]
  GI50: 10.3 µM
  TGI: 26 µM
[4]
  GI50: 10.5 µM
  TGI: 22.3 µM
[5]
  GI50: 6.31 µM
  TGI: 19.5 µM
[6]
  GI50: 4.5 µM
  TGI: 16.3 µM
[7]
  GI50: 5.41 µM
  TGI: 28.2 µM
[8]
  GI50: 1.82 µM
  TGI: 3.54 µM
[9]
  GI50: 12.4 µM
  TGI: 25.5 µM
[10]
  GI50: 11.2 µM
  TGI: 28.3 µM
[11]
  GI50: 5.81 µM
  TGI: 20.9 µM
[12]
  GI50: 4.85 µM
  TGI: 16.5 µM
[13]
  GI50: 4.52 µM
  TGI: 21.8 µM
[14]
  GI50: 2.89 µM
  TGI: 14 µM
[15]
  GI50: 11.4 µM
  TGI: 24.6 µM
[16]
  GI50: 2.67 µM
  TGI: 10.3 µM
[17]
  GI50: 1.42 µM
  TGI: 12.3 µM
[18]
  GI50: 2.72 µM
  TGI: 8.84 µM
[19]
  GI50: 12.2 µM
  TGI: 26.1 µM
[20]
  GI50: 2.82 µM
  TGI: 41.2 µM
[21]
  GI50: 6.1 µM
  TGI: 21.2 µM
[22]
  GI50: 5.9 µM
  TGI: 25.9 µM
[23]
  GI50: 11 µM
  TGI: 23.5 µM
[24]
  GI50: 10.2 µM
  TGI: 22.8 µM
[25]
  GI50: 5.54 µM
  TGI: 30.5 µM
[26]
  GI50: 7.43 µM
  TGI: 20.7 µM
[27]
  GI50: 7 µM
  TGI: 19.9 µM
[28]
  GI50: 4.69 µM
  TGI: 24 µM
[29]
  GI50: 10.7 µM
